Assay results published in US11767310B2, “Nicotinamide RIPK1 inhibitors” (AbbVie Inc., priority 2021, dated 2023).
Like-named read-outs stand apart in the source and are kept apart here.

Legend:
Experiment in all cases: Kinase binding screen
Details in all cases: read-out: Percent Control at 100 nM Compound Concentration
DMPK2 = DMPK2 (Homo sapiens (Human), UniProt Q6DT37)
PCTK2 = PCTK2 (Homo sapiens (Human), UniProt Q00537)
BLK = BLK (Homo sapiens (Human), UniProt P51451)
ULK1 = ULK1 (Homo sapiens (Human), UniProt O75385)
INSR = INSR (Homo sapiens (Human), UniProt P06213)
NEK7 = NEK7 (Homo sapiens (Human), UniProt Q8TDX7)
SRPK3 = SRPK3 (Homo sapiens (Human), UniProt Q9UPE1)
PIK3CA(I800L) = PIK3CA(I800L) (Homo sapiens (Human), UniProt P42336, I800L)
DAPK2 = DAPK2 (Homo sapiens (Human), UniProt Q9UIK4)
CSNK1E = CSNK1E (Homo sapiens (Human), UniProt P49674)
MAPKAPK5 = MAPKAPK5 (Homo sapiens (Human), UniProt Q8IW41)
EPHB6 = EPHB6 (Homo sapiens (Human), UniProt O15197)
FYN = FYN (Homo sapiens (Human), UniProt P06241)
CDKL2 = CDKL2 (Homo sapiens (Human), UniProt Q92772)
p38-delta = p38-delta (Homo sapiens (Human), UniProt O15264)
CLK1 = CLK1 (Homo sapiens (Human), UniProt P49759)
BIKE = BIKE (Homo sapiens (Human), UniProt Q9NSY1)
SIK2 = SIK2 (Homo sapiens (Human), UniProt Q9H0K1)
PCTK1 = PCTK1 (Homo sapiens (Human), UniProt Q00536)
CDK2 = CDK2 (Homo sapiens (Human), UniProt P24941)
TRKB = TRKB (Homo sapiens (Human), UniProt Q16620)
[1] = target: RSK1(Kin.Dom.1-N-terminal) (Homo sapiens (Human), UniProt Q15418)
PKN1 = PKN1 (Homo sapiens (Human), UniProt Q16512)
GSK3A = GSK3A (Homo sapiens (Human), UniProt P49840)
PIK3CG = PIK3CG (Homo sapiens (Human), UniProt P48736)
YSK4 = YSK4 (Homo sapiens (Human), UniProt Q56UN5)
EPHA8 = EPHA8 (Homo sapiens (Human), UniProt P29322)
AMPK-alpha2 = AMPK-alpha2 (Homo sapiens (Human), UniProt P54646)
CSF1R = CSF1R (Homo sapiens (Human), UniProt P07333)

Sequence of CSNK1E (P49674 whole entry): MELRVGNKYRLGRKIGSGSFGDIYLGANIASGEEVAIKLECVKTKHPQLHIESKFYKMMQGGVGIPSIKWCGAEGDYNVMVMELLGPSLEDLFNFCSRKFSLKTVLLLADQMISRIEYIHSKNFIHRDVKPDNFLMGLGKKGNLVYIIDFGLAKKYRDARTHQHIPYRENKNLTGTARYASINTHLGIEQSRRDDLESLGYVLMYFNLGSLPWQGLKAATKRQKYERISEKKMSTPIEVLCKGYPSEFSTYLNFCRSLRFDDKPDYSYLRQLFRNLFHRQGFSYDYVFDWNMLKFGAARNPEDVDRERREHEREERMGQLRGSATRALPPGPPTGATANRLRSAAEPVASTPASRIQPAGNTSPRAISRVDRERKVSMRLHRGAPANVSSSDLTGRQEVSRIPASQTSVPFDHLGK
Sequence of MAPKAPK5 (Q8IW41 whole entry): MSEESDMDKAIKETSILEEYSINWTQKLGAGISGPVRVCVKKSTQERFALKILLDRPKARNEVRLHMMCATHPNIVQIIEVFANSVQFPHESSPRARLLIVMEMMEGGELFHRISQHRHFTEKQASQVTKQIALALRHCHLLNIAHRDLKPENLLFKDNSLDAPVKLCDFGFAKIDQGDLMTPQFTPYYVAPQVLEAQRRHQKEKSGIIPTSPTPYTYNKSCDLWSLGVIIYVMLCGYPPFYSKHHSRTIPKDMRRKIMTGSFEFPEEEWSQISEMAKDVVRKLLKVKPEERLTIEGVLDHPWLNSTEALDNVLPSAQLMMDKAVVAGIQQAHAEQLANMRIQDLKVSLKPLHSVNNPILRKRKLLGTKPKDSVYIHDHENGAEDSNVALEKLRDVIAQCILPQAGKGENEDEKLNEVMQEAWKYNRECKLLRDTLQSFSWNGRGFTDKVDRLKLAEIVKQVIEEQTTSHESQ
Sequence of EPHB6 (O15197 32-1021): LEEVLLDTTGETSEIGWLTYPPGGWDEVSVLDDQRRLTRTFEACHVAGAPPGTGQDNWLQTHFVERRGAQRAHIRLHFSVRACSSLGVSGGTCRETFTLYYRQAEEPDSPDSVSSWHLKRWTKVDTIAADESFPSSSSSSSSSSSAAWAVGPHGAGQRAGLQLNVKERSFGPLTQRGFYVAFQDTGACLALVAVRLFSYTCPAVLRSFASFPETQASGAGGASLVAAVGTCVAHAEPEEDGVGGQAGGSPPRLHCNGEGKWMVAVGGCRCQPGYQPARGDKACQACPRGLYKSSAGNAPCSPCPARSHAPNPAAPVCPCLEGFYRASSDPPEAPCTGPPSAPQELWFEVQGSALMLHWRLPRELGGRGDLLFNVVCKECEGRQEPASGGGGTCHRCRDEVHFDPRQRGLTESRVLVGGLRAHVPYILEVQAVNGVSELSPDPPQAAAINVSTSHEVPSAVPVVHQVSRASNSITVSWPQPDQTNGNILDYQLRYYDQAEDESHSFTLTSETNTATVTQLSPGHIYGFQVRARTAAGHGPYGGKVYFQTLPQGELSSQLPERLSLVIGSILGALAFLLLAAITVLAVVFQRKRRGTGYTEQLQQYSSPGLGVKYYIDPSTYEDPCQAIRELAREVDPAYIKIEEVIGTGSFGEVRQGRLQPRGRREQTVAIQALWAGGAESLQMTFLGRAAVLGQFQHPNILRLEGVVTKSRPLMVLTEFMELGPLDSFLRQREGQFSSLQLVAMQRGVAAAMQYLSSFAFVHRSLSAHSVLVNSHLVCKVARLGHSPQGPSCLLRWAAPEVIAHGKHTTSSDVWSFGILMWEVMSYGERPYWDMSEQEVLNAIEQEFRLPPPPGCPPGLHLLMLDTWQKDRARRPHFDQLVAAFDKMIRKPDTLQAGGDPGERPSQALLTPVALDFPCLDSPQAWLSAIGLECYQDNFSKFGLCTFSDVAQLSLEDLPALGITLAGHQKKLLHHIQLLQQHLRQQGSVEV
Sequence of FYN (P06241 whole entry): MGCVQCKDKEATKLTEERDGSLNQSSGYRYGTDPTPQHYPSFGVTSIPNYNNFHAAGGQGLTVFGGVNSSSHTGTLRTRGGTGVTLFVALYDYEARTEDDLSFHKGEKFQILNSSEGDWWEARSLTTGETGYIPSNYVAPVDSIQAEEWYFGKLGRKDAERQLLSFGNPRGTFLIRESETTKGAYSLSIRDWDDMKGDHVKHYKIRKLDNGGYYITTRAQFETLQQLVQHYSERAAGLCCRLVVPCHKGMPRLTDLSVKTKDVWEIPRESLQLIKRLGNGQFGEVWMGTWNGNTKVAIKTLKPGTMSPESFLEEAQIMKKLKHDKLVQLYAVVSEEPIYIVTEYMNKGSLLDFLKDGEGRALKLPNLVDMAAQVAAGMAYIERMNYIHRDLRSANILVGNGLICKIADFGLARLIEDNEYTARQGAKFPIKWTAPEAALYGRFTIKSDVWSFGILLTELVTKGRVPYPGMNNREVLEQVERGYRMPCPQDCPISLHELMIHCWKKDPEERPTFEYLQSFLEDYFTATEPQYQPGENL
Sequence of BLK (P51451 whole entry): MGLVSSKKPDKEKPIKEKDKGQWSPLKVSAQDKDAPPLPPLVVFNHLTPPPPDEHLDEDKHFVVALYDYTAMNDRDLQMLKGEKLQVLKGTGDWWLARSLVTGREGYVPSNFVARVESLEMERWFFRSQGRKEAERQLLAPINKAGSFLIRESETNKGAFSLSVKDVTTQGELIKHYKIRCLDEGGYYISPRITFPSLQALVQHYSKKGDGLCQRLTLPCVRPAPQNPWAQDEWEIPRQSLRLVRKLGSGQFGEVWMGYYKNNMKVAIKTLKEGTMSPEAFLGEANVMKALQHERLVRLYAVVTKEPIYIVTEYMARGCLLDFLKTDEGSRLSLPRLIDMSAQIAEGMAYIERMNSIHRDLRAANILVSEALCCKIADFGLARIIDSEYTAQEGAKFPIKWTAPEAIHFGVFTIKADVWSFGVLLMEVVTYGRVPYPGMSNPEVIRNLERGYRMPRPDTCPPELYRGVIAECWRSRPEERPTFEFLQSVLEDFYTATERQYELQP
Sequence of PKN1 (Q16512 whole entry): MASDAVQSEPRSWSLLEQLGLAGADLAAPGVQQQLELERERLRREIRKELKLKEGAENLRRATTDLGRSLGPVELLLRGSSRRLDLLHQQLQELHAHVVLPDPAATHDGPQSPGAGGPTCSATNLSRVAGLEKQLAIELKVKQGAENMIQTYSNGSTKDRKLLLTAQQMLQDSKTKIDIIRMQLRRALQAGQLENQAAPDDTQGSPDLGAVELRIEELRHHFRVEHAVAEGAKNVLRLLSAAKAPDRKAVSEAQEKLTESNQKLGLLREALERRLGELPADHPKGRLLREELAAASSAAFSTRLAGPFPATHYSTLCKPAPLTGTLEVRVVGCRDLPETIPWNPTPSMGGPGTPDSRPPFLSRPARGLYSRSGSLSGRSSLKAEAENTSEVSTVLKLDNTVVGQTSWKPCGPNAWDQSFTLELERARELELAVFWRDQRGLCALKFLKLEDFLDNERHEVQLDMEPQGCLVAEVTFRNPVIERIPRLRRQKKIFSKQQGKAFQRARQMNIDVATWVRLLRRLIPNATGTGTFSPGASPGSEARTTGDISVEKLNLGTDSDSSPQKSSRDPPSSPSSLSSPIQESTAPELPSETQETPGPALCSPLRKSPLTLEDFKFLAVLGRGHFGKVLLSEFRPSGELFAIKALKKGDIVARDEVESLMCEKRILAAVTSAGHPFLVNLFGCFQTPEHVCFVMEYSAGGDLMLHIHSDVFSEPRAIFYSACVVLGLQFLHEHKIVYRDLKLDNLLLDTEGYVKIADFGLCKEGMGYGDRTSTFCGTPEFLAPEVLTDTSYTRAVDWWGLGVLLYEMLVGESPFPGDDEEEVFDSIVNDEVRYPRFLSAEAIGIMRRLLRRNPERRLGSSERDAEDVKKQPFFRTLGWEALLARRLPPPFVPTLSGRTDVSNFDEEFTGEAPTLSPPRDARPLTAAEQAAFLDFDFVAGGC
Sequence of ULK1 (O75385 whole entry): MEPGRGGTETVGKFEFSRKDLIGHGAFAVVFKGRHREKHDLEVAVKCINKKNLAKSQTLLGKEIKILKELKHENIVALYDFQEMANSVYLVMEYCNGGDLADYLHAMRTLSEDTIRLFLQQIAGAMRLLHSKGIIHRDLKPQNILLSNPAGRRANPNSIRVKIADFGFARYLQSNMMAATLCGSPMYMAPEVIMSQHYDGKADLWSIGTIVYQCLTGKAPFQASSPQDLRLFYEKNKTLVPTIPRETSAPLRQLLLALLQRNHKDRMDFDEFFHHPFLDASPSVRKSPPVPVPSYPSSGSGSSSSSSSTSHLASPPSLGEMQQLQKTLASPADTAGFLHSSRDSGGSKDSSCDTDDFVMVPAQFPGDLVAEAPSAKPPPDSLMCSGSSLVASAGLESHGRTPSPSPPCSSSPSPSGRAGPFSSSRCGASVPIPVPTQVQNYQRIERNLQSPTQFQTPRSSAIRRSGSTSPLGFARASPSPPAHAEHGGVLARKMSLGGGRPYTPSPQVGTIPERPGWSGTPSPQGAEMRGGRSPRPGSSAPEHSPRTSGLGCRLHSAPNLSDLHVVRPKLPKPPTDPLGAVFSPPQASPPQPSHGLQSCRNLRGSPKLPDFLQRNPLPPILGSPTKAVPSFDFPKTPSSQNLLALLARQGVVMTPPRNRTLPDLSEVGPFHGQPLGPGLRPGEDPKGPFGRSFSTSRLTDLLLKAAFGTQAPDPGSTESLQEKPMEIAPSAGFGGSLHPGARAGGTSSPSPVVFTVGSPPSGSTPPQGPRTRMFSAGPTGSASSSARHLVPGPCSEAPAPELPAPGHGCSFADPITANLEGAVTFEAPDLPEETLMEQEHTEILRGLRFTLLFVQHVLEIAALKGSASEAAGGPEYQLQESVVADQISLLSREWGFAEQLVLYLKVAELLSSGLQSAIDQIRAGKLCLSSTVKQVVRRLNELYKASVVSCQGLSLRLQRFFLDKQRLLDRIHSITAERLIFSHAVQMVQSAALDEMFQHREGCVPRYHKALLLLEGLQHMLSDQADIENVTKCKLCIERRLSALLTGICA

CN(C[C@H](Cc1ccccc1)OP(=O)(O)O)C(=O)c1cncc(C#Cc2cnn(C(F)F)c2)c1 [Example 19, (S)-1-(5-((1-(difluoromethyl)-1H-pyrazol-4-yl)ethynyl)-N-methylnicotinamido)-3-phenylpropan-2-yl dihydrogen phosphate]
remaining activity at 0.1 µM (DMPK2): 96%
remaining activity at 0.1 µM (PCTK2): 100%
remaining activity at 0.1 µM (BLK): 96%
remaining activity at 0.1 µM (ULK1): 100%
remaining activity at 0.1 µM (INSR): 100%
remaining activity at 0.1 µM (NEK7): 99%
remaining activity at 0.1 µM (SRPK3): 100%
remaining activity at 0.1 µM (PIK3CA(I800L)): 87%
remaining activity at 0.1 µM (DAPK2): 90%
remaining activity at 0.1 µM (CSNK1E): 74%
remaining activity at 0.1 µM (MAPKAPK5): 96%
remaining activity at 0.1 µM (EPHB6): 100%
remaining activity at 0.1 µM (FYN): 100%
remaining activity at 0.1 µM (CDKL2): 95%
remaining activity at 0.1 µM (p38-delta): 100%
remaining activity at 0.1 µM (CLK1): 100%
remaining activity at 0.1 µM (BIKE): 100%
remaining activity at 0.1 µM (SIK2): 96%
remaining activity at 0.1 µM (PCTK1): 84%
remaining activity at 0.1 µM (CDK2): 100%
remaining activity at 0.1 µM (TRKB): 94%
remaining activity at 0.1 µM [1]: 100%
remaining activity at 0.1 µM (PKN1): 100%
remaining activity at 0.1 µM (GSK3A): 100%
remaining activity at 0.1 µM (PIK3CG): 100%
remaining activity at 0.1 µM (YSK4): 90%
remaining activity at 0.1 µM (EPHA8): 100%
remaining activity at 0.1 µM (AMPK-alpha2): 100%
remaining activity at 0.1 µM (CSF1R): 100%

CN(C[C@@H](O)Cc1ccccc1)C(=O)c1cncc(C#Cc2cnn(C(F)F)c2)c1 [Example 2, (S)-5-((1-(difluoromethyl)-1H-pyrazol-4-yl)ethynyl)-N-(2-hydroxy-3-phenylpropyl)-N-methylnicotinamide]
remaining activity at 0.1 µM (DMPK2; DMPK2): 97%
remaining activity at 0.1 µM (PCTK2; PCTK2): 100%
remaining activity at 0.1 µM (BLK; BLK): 85%
remaining activity at 0.1 µM (ULK1; ULK1): 100%
remaining activity at 0.1 µM (INSR; INSR): 100%
remaining activity at 0.1 µM (NEK7; NEK7): 100%
remaining activity at 0.1 µM (SRPK3; SRPK3): 90%
remaining activity at 0.1 µM (PIK3CA(I800L); PIK3CA(I800L)): 96%
remaining activity at 0.1 µM (DAPK2; DAPK2): 100%
remaining activity at 0.1 µM (CSNK1E; CSNK1E): 67%
remaining activity at 0.1 µM (MAPKAPK5; MAPKAPK5): 94%
remaining activity at 0.1 µM (EPHB6; EPHB6): 100%
remaining activity at 0.1 µM (FYN; FYN): 100%
remaining activity at 0.1 µM (CDKL2; CDKL2): 100%
remaining activity at 0.1 µM (p38-delta; p38-delta): 100%
remaining activity at 0.1 µM (CLK1; CLK1): 100%
remaining activity at 0.1 µM (BIKE; BIKE): 100%
remaining activity at 0.1 µM (SIK2; SIK2): 89%
remaining activity at 0.1 µM (PCTK1; PCTK1): 91%
remaining activity at 0.1 µM (CDK2; CDK2): 100%
remaining activity at 0.1 µM (TRKB; TRKB): 100%
remaining activity at 0.1 µM ([1]; RSK1(Kin.Dom.1-N-terminal)): 96%
remaining activity at 0.1 µM (PKN1; PKN1): 91%
remaining activity at 0.1 µM (GSK3A; GSK3A): 100%
remaining activity at 0.1 µM (PIK3CG; PIK3CG): 100%
remaining activity at 0.1 µM (YSK4; YSK4): 99%
remaining activity at 0.1 µM (EPHA8; EPHA8): 99%
remaining activity at 0.1 µM (AMPK-alpha2; AMPK-alpha2): 89%
remaining activity at 0.1 µM (CSF1R; CSF1R): 100%
